pIC50: −log10 of the molar value.
Columns and labels:
[1] = test system: TXB2 Released by Human Platelets; test: Ionophore and arachidonic acid induced TXB2 released by human platelets (EIA); assay type: cell-based; conditions: human platelet-rich plasma, challenge with calcium ionophore (10 μM) or arachidonic acid (50 μM)
Protocol: Ionophore and Arachidonic Acid Induced TXB2 Released by Human Platelets
The plate was incubated for 15 minutes at 37° C. Following incubation, platelets were challenged with calcium ionophore (final 10 μM) or arachidonic acid (AA) (final 50 μM) and the plate was further incubated at 37° C. for 15 min. The plate was transferred to an ice bed for 5 min in order to stop the reaction. Supernatants were assayed for TXB2 production by EIA (Assay Design Inc) after diluting with assay buffer (Assay Design Inc).

Neutrophil LTB4 [2] = test: Neutrophil LTB4 assay (calcium ionophore challenge, EIA); assay type: cell-based; conditions: human neutrophils, calcium ionophore 1 μM
Neutrophil LTB4 [3] = test: as above; assay type: cell-based; conditions: Neutrophil; test concentration of 5 μM; human neutrophils, calcium ionophore 1 μM; read-out: LTB4 percent inhibition
Protocol: Neutrophils purified from human blood were resuspended in HBSS buffer containing calcium and magnesium to a cell density of 1×10^6/mL. Purified neutrophils were then incubated with test compounds at a test concentration of 5 μM for 15 min at 37° C. Following incubation, the cells were challenged with calcium ionophore (1 μM final) for 15 minutes at 37° C. Negative control wells were incubated with equal volume of vehicle. The reaction was stopped by transferring the plate to ice for 5 minutes. The plate was centrifuged at 1500 RPM for 5 min at 4° C. LTB4 was calculated in cell free supernatants by EIA (Assay Design Inc).

[4] = test system: PMA Induced Acute Ear Edema; test: PMA induced acute ear edema (mouse); assay type: in vivo; conditions: ear punch weight 6 h after PMA; for % Inh (percent inhibition of edema): test compound applied topically at about 1% to about 10%, 10 min before PMA
Protocol: PMA Induced Acute Ear Edema
PMA was prepared […] in an acetone:water mixture (99:1). 10 μL of 200 ng/10 μL was applied to the left ears of the mice. Control mice received 10 μL of vehicle. Test compounds were dissolved in the vehicle and applied at a test concentration of from about 1% to about 10% (depending on solubility) at 10 min before PMA application. β-methasone (1%) was used as a control. Six hours after the PMA application, mice were sacrificed and 6 mm ear punch biopsies were removed and weighed to assess edema.

Compound: Cc1nc(-c2cccc(Cn3sccc3=O)c2)cs1 [Cpd 48, 2-[3-(2-methyl-thiazol-4-yl)benzyl]-isothiazol-3-one]
- pIC50 [1]: 5.82
- pIC50 (Neutrophil LTB4 [2]): 5.82

Compound: O=c1cc(Cl)sn1Cc1cc2ccccc2s1 [Cpd 7, 2-benzo[b]thiophen-2-ylmethyl-5-chloro-isothiazol-3-one]
- inhibition at 5 µM (Neutrophil LTB4 [3]): 95%
- pIC50 [1]: 6.34
- melting point: 101 to 103 °C

Compound: O=c1ccsn1Cc1cccc2ccccc12 [Cpd 2, 2-naphthalen-1-ylmethyl-isothiazol-3-one]
- inhibition at 5 µM (Neutrophil LTB4 [3]): 81%
- pIC50 [1]: 5.52
- melting point: 121 to 125 °C

Compound: O=c1ccsn1Cc1cc2ccccc2s1 [Cpd 9, 2-benzo[b]thiophen-2-ylmethyl-isothiazol-3-one]
- inhibition at 5 µM (Neutrophil LTB4 [3]): 84%
- pIC50 [1]: 5.74
- melting point: 144 to 146 °C
- % Inh (percent inhibition of edema) [4]: 72%

Compound: O=c1cc(Cl)sn1Cc1ccc(-c2csnn2)cc1 [Cpd 21, 5-chloro-2-(4-[1,2,3]thiadiazol-4-yl-benzyl)isothiazol-3-one]
- inhibition at 5 µM (Neutrophil LTB4 [3]): 87%
- pIC50 [1]: 6.00
- melting point: 152 to 154 °C

Compound: C[C@H]1C[C@H]2[C@@H]3CCC4=CC(=O)C=C[C@]4(C)[C@@]3(F)[C@@H](O)C[C@]2(C)[C@@]1(O)C(=O)CO [β-methasone, reference compound]
- β-methasone control, percent inhibition of edema ([4]; β-methasone (1%) used as control): 100%

Compound: O=c1cc(Cl)sn1Cc1ccc2c(c1)CCO2 [Cpd 16, 5-chloro-2-(2,3-dihydro-benzofuran-5-ylmethyl)-isothiazol-3-one]
- inhibition at 5 µM (Neutrophil LTB4 [3]): 97%
- pIC50 [1]: 6.60
- melting point: 100 to 102 °C

Compound: O=c1cc(Cl)sn1Cc1sc2ccccc2c1Cl [Cpd 6, 5-chloro-2-(3-chloro-benzo[b]thiophen-2-ylmethyl)-isothiazol-3-one]
- inhibition at 5 µM (Neutrophil LTB4 [3]): 70%
- pIC50 [1]: 6.15
- melting point: 118 to 120 °C

Compound: O=c1ccsn1Cc1cccc(-c2ccco2)c1 [Cpd 49, 2-(3-furan-2-yl-benzyl)-isothiazol-3-one]
- inhibition at 5 µM (Neutrophil LTB4 [3]): 100%
- pIC50 [1]: 5.92
- melting point: 78 to 80 °C

Compound: Cc1nc(-c2ccc(Cn3sccc3=O)cc2)cs1 [Cpd 26, 2-[4-(2-methyl-thiazol-4-yl)-benzyl]-isothiazol-3-one]
- pIC50 [1]: 6.40
- melting point: 150.5 to 152 °C
- pIC50 (Neutrophil LTB4 [2]): 5.77

Compound: O=c1ccsn1Cc1ccc(-n2cc(Cl)cn2)cc1 [Cpd 57, 2-[4-(4-chloro-pyrazol-1-yl)-benzyl]-isothiazol-3-one]
- inhibition at 5 µM (Neutrophil LTB4 [3]): 100%
- pIC50 [1]: 5.52
- % Inh (percent inhibition of edema) [4]: 100%

Compound: O=c1cc(Cl)sn1Cc1csc2ccc(Cl)cc12 [Cpd 19, 5-chloro-2-(5-chloro-benzo[b]thiophen-3-ylmethyl)-isothiazol-3-one]
- inhibition at 5 µM (Neutrophil LTB4 [3]): 100%
- pIC50 [1]: 6.00

Compound: O=c1c(Cl)c(Cl)sn1C(c1ccccc1)c1ccccn1 (stereo not shown) [Cpd 33, 4,5-dichloro-2-(phenyl-pyridin-2-yl-methyl)-isothiazol-3-one]
- inhibition at 5 µM (Neutrophil LTB4 [3]): 95%
- pIC50 [1]: 6.70

Compound: N#Cc1cccc(C#Cc2ccc(Cn3sc(Cl)cc3=O)cc2)c1 [Cpd 43, 3-[4-(5-chloro-3-oxo-3H-isothiazol-2ylmethyl)-phenylethynyl]-benzonitrile]
- inhibition at 5 µM (Neutrophil LTB4 [3]): 100%
- pIC50 [1]: 5.80

Compound: CC(=O)c1ccc(Cn2sc(Cl)c(Cl)c2=O)cc1 [Cpd 65, 4,5-dichloro-2-(4-acetylbenzyl)-isothiazol-3-one]
- inhibition at 5 µM (Neutrophil LTB4 [3]): 45%
- pIC50 [1]: 6.40

Compound: O=c1cc(Cl)sn1[C@H]1C[C@@H]1c1ccccc1 [Cpd 42, (1S,2R)-5-chloro-2-(2-phenyl-cyclopropyl)-isothiazol-3-one]
- inhibition at 5 µM (Neutrophil LTB4 [3]): 61%
- pIC50 [1]: 6.40

Compound: Cc1nc(-c2cccc(-n3sccc3=O)c2)c(Cl)s1 [Cpd 45, 2-[3-(2-methyl-5-chloro-thiazol-4-yl)-phenyl]-isothiazol-3-one]
- inhibition at 5 µM (Neutrophil LTB4 [3]): 100%
- pIC50 [1]: 5.74

Compound: Cc1nc(-c2cccc(-n3sccc3=O)c2)cs1 [Cpd 46, 2-[3-(2-methyl-thiazol-4-yl)-phenyl]-isothiazol-3-one]
- inhibition at 5 µM (Neutrophil LTB4 [3]): 64%
- pIC50 [1]: 6.00

Compound: O=C(c1ccccc1)c1ccc(Cn2sccc2=O)cc1 [Cpd 51, 2-(4-benzoylbenzyl)-isothiazol-3-one]
- inhibition at 5 µM (Neutrophil LTB4 [3]): 90%
- pIC50 [1]: 5.92
- % Inh (percent inhibition of edema) [4]: 84%

Compound: O=c1cc(Cl)sn1Cc1csc(-c2ccccc2)n1 [Cpd 53, 5-chloro-2-(2-phenyl-thiazol-4-ylmethyl)-isothiazol-3-one]
- inhibition at 5 µM (Neutrophil LTB4 [3]): 92%
- pIC50 [1]: 6.40

Compound: O=c1cc(Cl)sn1Cc1ccc(S(=O)(=O)c2ccccc2)cc1 [Cpd 38, 5-chloro-2-(4-benzenesulfonyl-benzyl)-isothiazol-3-one]
- inhibition at 5 µM (Neutrophil LTB4 [3]): 93%
- pIC50 [1]: 6.05

Source: patent publication US20060293374A1, “Substituted isothiazolones” (priority 2005, published 2006)
